Reference: patent US20260068882A1, “ARTHROPOD CONTROLLING COMPOSITION” (Firmenich SA, priority 2019, published 2026)
Where a name gives a salt, the structure may show the parent alone. Read-outs that look alike come from different tables or passages of the source.

Tests used:
[1] = test system: Aedes aegypti; assay: In vitro Warm Body assay, mosquitoes landing on treated warm body; assay type: in vivo; details: for pest or weed control at 0.04 % / pest or weed control at 0.0016 %: Aedes aegypti, read-out: decrease of landings; for % of mosquitoes' repellency: normalised to landing with 100% ethanol
Procedure: (§1) The arthropod controlling effect according to the present invention is determined on mosquitoes using an adapted Warm Body assay as defined in Kröber T, Kessler S, Frei J, Bourquin M, Guerin P M. An in vitro assay for testing mosquito controlling compounds employing a warm body and carbon dioxide as a behavioral activator. J Am Mosq Control Assoc. 2010; 26:381-386.
(§2) The controlling effect according to the present invention is determined by testing the Warm Body assay against the yellow fever mosquito, Aedes aegypti Rockefeller strain. […] Observations of controlling efficacy were made on host-seeking females of uniform age, 5 to 10 days old selected as mentioned in the publication mentioned hereinabove. Tested hungry females had access to 10% sugar solution but were not blood-fed.
(§3) The published protocol has been adapted in not manually counting the landing mosquitoes but automatically using an automatic counting software, the switch from Anopheles gambiae to A. aegypti led to a decrease of mosquitoes' number placed in the tested cage due to the size difference (i.e. 30 mosquitoes instead of 50) and to an increase of lighting as A. aegypti is a diurnal mosquitoes (i.e. 150 lux instead of 4 lux).
as §2, with “A.” for “Aedes”
as §1, with “The” for “The arthropod”, “was assessed” for “is determined on mosquitoes”
as §3, with “Aedes” for “A.”
In this in-vitro assay the number of A. aegypti landing on a warm body treated with the tested stimuli was measured in order to assess the repellency effect. Three replicates were carried on the three different doses: 0.0016%, 0.04% and 1% in ethanol, using 25 A. aegypti 10-12 days old females per cage.
In this in-vitro assay, the number of Aedes aegypti landing on a warm body treated with the tested stimuli was measured in order to assess the repellency effect. Three replicates were carried on the three different doses: 0.0016%, 0.04% and 1% in ethanol.
In this in-vitro assay, the number of Aedes aegypti landing on a warm body treated with the tested stimuli was measured in order to assess the repellency effect. One replicate was carried at different doses ranging from 0.0016% up to 1% in ethanol.

[2] = test system: Ixodes ricinus; assay: In vitro Warm Plate Assay for ticks; assay type: in vivo
Procedure: Repellent efficacy of the different compounds was assessed against the sheep tick, Ixodes ricinus. I. ricinus is one of the recommended model organisms mentioned by the Guidance on the European Biological Products Regulation [Vol II, Efficacy-Assessment & Evaluation (Parts B+C), v. 3.0, April 2018]. Observations of repellent efficacy were made on last stage nymphs.
The repellent efficacy was assessed using the protocol of the in-vitro Warm Plate Assay as defined in Kröber T, Bourquin M, Guerin P M. A standardized in vivo and in vitro test method for evaluating tick repellents. Pesticide Biochemistry and Physiology. 2013; 107 (2): 160-168.].
The mean±SD number of ticks Ixodes ricinus walking down (affected), falling (affected) or walking-up (non affected) from the warm plate treated with ethanol, N,N-diethyl-3-methylbenzamide, (2,5-dimethyl-2,3-dihydro-1H-inden-2yl)methanol (Ingredient 2) or (2,4,6-trimethyl-2,3-dihydro-1H-inden-2-yl)methanol (Ingredient 1) diluted in ethanol at 0.4 mg/ml and 10 mg/mL was assessed on n groups of 12 ticks (n=2-5).
In this in-vitro assay, the percentage of ticks Ixodes ricinus affected by the stimulus loaded on the warm plate was measured in order to assess the repellency effect. Twelve ticks were assessed per concentrations that goes from 0.0016% up to 1% in ethanol.
Using the same in-vitro setup, the effect on ticks behavior (n≥12) of different stimuli diluted in ethanol at 20% (w/w) was assessed overtime.

[3] = Ixodes ricinus, 0.0016% (Table 11), read-out: percentage of ticks affected on the Warm Plate
[4] = Ixodes ricinus, 0.04% (Table 11), read-out: percentage of ticks affected on the Warm Plate
[5] = Ixodes ricinus, 1% (Table 11), read-out: percentage of ticks affected on the Warm Plate
[6] = Ixodes ricinus, 0.04% (Table 10), read-out: percentage of ticks affected on the Warm Plate
[7] = Ixodes ricinus, 0.2% (Table 10), read-out: percentage of ticks affected on the Warm Plate
[8] = Ixodes ricinus, 1% (Table 10), read-out: percentage of ticks affected on the Warm Plate

## Cc1cc(C)c2c(c1)CC(C)(CO)C2 (racemic) [ingredient #1, (2,4,6-trimethyl-2,3-dihydro-1H-inden-2-yl)methanol]
[1]; 1% in ethanol (FIG. 8)
  mosquitoes landing on the warm body: no mosquito landed
[1]
  pest or weed control at 0.04 %: 88%
[2]; 0.4 mg/mL in ethanol (Table 5)
  MEAN % affected (ticks): 67%
[2]; 10 mg/mL in ethanol (Table 5)
  MEAN % affected (ticks): 100%
[2]; 0.04%
  ticks non-affected over 12 (in words): three and five ticks over 12 being non-affected
[2]; 1%
  ticks affected / not affected over 12 (in words): all the ticks being affected
[2]; [3]
  pest or weed control at 0.0016 %: 20%
[2]; Ixodes ricinus, 0.0016% in ethanol (Table 12), read-out: percentage of ticks affected on the Warm Plate
  pest or weed control at 0.0016 %: 20%
[2]; Ixodes ricinus, 0.0053% in ethanol (Table 12), read-out: percentage of ticks affected on the Warm Plate
  pest or weed control at 0.0053 %: 7%
[2]; Ixodes ricinus, 0.008% in ethanol (Table 12), read-out: percentage of ticks affected on the Warm Plate
  pest or weed control at 0.008 %: 8%
[2]; Ixodes ricinus, 0.0119% in ethanol (Table 12), read-out: percentage of ticks affected on the Warm Plate
  pest or weed control at 0.0119 %: 23%
[2]; Ixodes ricinus, 0.0178% in ethanol (Table 12), read-out: percentage of ticks affected on the Warm Plate
  pest or weed control at 0.0178 %: 0%
[2]; Ixodes ricinus, 0.0267% in ethanol (Table 12), read-out: percentage of ticks affected on the Warm Plate
  pest or weed control at 0.0267 %: 7%
[2]; [4]
  pest or weed control at 0.04 %: 57%
[2]; Ixodes ricinus, 0.04% in ethanol (Table 12), read-out: percentage of ticks affected on the Warm Plate
  pest or weed control at 0.04 %: 57%
[2]; Ixodes ricinus, 0.0598% in ethanol (Table 12), read-out: percentage of ticks affected on the Warm Plate
  pest or weed control at 0.0598 %: 13%
[2]; Ixodes ricinus, 0.089% in ethanol (Table 12), read-out: percentage of ticks affected on the Warm Plate
  pest or weed control at 0.089 %: 41%
[2]; Ixodes ricinus, 0.2% in ethanol (Table 12), read-out: percentage of ticks affected on the Warm Plate
  pest or weed control at 0.2 %: 85%
[2]; Ixodes ricinus, 0.447% in ethanol (Table 12), read-out: percentage of ticks affected on the Warm Plate
  pest or weed control at 0.447 %: 92%
[2]; [5]
  pest or weed control at 1 %: 96%
[2]; Ixodes ricinus, 1% in ethanol (Table 12), read-out: percentage of ticks affected on the Warm Plate
  pest or weed control at 1 %: 96%

## Cc1ccc2c(c1)CC(C)(C(C)O)C2 (stereo not drawn) [1-(2,5-dimethyl-2-indanyl)-1-ethanol]
[1]
  pest or weed control at 0.04 %: ~70%
[2]; [3]
  pest or weed control at 0.0016 %: 15%
[2]; [4]
  pest or weed control at 0.04 %: 0%
[2]; [5]
  pest or weed control at 1 %: 100%

## OCC1Cc2ccccc2C1 [2,3-dihydro-1H-inden-2-ylmethanol]
[1]; 0.0016% in ethanol (Table 6)
  number of mosquitoes landed on the Warm Body: 32
[1]; 0.04% in ethanol (Table 6)
  number of mosquitoes landed on the Warm Body: 1
[2]; [6]
  pest or weed control at 0.04 %: 29%
[2]; [7]
  pest or weed control at 0.2 %: 100%
[2]; [8]
  pest or weed control at 1 %: 92%
[2]; Tables 10 and 12
  concentration at which the level of 85% of ticks affected is reached: 0.2%

## N#CC1Cc2ccccc2C1 [2,3-dihydro-1H-indene-2-carbonitrile]
[1]; 0.0016% in ethanol (Table 6)
  number of mosquitoes landed on the Warm Body: 59
[1]; 0.04% in ethanol (Table 6)
  number of mosquitoes landed on the Warm Body: 13
[2]; [6]
  pest or weed control at 0.04 %: 29%
[2]; [7]
  pest or weed control at 0.2 %: 71%
[2]; [8]
  pest or weed control at 1 %: 100%

## COCC1(C)Cc2ccc(C)cc2C1 (stereo not drawn) [(2,5-dimethyl-2,3-dihydro-1H-inden-2-yl)methyl methyl ether]
[1]; 1% in ethanol (FIG. 9)
  decrease of the number of landing: 86%
[1]
  pest or weed control at 0.0016 %: 4 to 29%
[2]; [3]
  pest or weed control at 0.0016 %: 0%
[2]; [4]
  pest or weed control at 0.04 %: 17%
[2]; [5]
  pest or weed control at 1 %: 79%

## Cc1ccc2c(c1)CC(C)(COC=O)C2 (stereo not drawn) [(2,5-dimethyl-2-indanyl)methyl formate]
[1]
  pest or weed control at 0.0016 %: 4 to 29%
[2]; [3]
  pest or weed control at 0.0016 %: 0%
[2]; [4]
  pest or weed control at 0.04 %: 7%
[2]; [5]
  pest or weed control at 1 %: 85%

## CC1(CO)Cc2ccccc2C1 [(2-methyl-1,3-dihydroinden-2-yl)methanol]
[1]; 0.0016% in ethanol (Table 6)
  number of mosquitoes landed on the Warm Body: 65
[1]; 0.04% in ethanol (Table 6)
  number of mosquitoes landed on the Warm Body: 16
[1]; 1% in ethanol (Table 6)
  number of mosquitoes landed on the Warm Body: 1
[2]; [3]
  pest or weed control at 0.0016 %: 0%
[2]; [4]
  pest or weed control at 0.04 %: 14%
[2]; [5]
  pest or weed control at 1 %: 92%

## CCN(CC)C(=O)c1cccc(C)c1 [DEET, N,N-diethyl-3-methylbenzamide, reference compound]
[1]; 0.00032% concentration
  % of mosquitoes' repellency: 17%
[1]; 0.00071% concentration
  % of mosquitoes' repellency: 10%
[1]; 0.0016% concentration
  % of mosquitoes' repellency: 5%
[1]; 0.0016% dilution (Table 4)
  mean ± SD numbers of mosquitoes landed on the Warm Body: 53.3 ± 12.5
[1]; 0.0036% concentration
  % of mosquitoes' repellency: 19%
[1]; 0.0053% concentration
  % of mosquitoes' repellency: 46%
[1]; 0.0080% concentration
  % of mosquitoes' repellency: 61%
[1]; 0.018% concentration
  % of mosquitoes' repellency: 79%
[1]; 0.040% concentration
  % of mosquitoes' repellency: 89%
[1]; 0.04% dilution (Table 4)
  mean ± SD numbers of mosquitoes landed on the Warm Body: 5.7 ± 1.0
[1]; 0.089% concentration
  % of mosquitoes' repellency: 97%
[1]; 0.20% concentration
  % of mosquitoes' repellency: 98%
[1]; 0.45% concentration
  % of mosquitoes' repellency: 95%
[1]; 1% concentration
  % of mosquitoes' repellency: 97%
[1]; 1% dilution (Table 4)
  mean ± SD numbers of mosquitoes landed on the Warm Body: 0.7 ± 0.3
[1]; 0.04% in ethanol (FIG. 8)
  pest or weed control at 0.04 %: 92%
[2]; 0.4 mg/mL in ethanol (Table 5)
  MEAN % affected (ticks): 50%
[2]; 10 mg/mL in ethanol (Table 5)
  MEAN % affected (ticks): 96%
